# US10377741B2, “Substituted heteroaryl aldehyde compounds and methods for their use in increasing tissue oxygenation” (Global Blood Therapeutics, Inc., priority 2011, dated 2019)
# Target: T1, purified Hemoglobin S (HbS) (Homo sapiens, UniProt P68871+P69905, E7V)
# T1 construct: HbS was purified by a modified procedure; from tissue; host or cells: blood of homozygous sickle cell patients (CHORI); for the polymerization assay purified by the CRO VIRUSYS
# Assay: Modulation of hemoglobin oxygen affinity: oxygen equilibrium curves (HEMOX) in purified HbS
# Assay type: biochemical, human (homozygous sickle cell patients)
# Settings: compound at 30 μM; 25 μM purified HbS, 45 min at 37° C.
# Protocol: Oxygen equilibrium curves (OEC) in purified Hemoglobin S (HbS) were measured by the change in p50, the partial pressure of oxygen at which the heme binding sites in the HbS sample are 50% saturated with oxygen. HbS was purified by a modified procedure (Antonini and Brunori, 1971; Heomoglobin and Myoglobin in their Reactions with Ligands; North Holland Publishing Company; Amsterdam, London) from blood obtained from homozygous sickle cell patients though the Hemoglobinopathy Center at Children's Hospital Oakland Research Institute (CHORI) with Institutional Review Board approval. Oxygen equilibrium curves were carried out with a HEMOX analyzer, (TCS Scientific, New Hope, Pa.). Five hundred μL of 250 μM purified HbS were diluted into 4.5 mL of HEMOX buffer (30 mM TES, 130 mM NaCl, 5 mM KCl, pH=7.4) resulting in a final hemoglobin concentration of 25 μM. The compounds were added at the final desired concentrations. The mixture was incubated for 45 min at 37° C. and then transferred to the Hemox sample chamber. The samples were saturated with oxygen by flushing with compressed air for 10 minutes. The samples were then flushed with pure nitrogen and the absorbance of deoxy-Hb was recorded as a function of the solution pO2. The oxygen equilibrium data was then fit to the Hill Model to obtain values for p50. The deoxygenation curves for both HbS alone (control) and HbS in the presence of compound were collected with the TCS software. The p50 for purified Hbs was typically 13.8±1.6. Delta p50 values were obtained from the p50 value for control minus the p50 value for HbS treated with compound divided by the p50 value for the control.
# The compounds of Table 1 that were where tested in the assay above were all found to have positive delta p50 values. Delta p50% is calculated from [[p50(HbS) −p50(HbS treated with compound)]/p50(HbS)]×100. Table 2 below lists the delta p50% values where + indicates a delta p50% of between 0 and 29, ++ indicates a delta p50% of between 30 and 50, and +++ indicates a delta p50% of 50 or greater. Unless noted otherwise, the compounds in Table 2 were tested at 30 μM.
row,delta p50%,Compound
1,+ (a delta p50% of between 0 and 29),"COc1cc(C=O)c(OCc2cncc(C#N)c2)cn1 [Compound 98, 5-((4-formyl-6-methoxypyridin-3-yloxy)methyl)nicotinonitrile]"
2,+ (a delta p50% of between 0 and 29),"Cc1ccc(OCc2cccn3cncc23)c(C=O)n1 [Compound 139, 3-(imidazo[1,5-a]pyridin-8-ylmethoxy)-6-methylpicolinaldehyde]"
3,+ (a delta p50% of between 0 and 29),"O=Cc1ccncc1OCc1cccn2ccnc12 [Compound 6, 3-(imidazo[1,2-a]pyridin-8-ylmethoxy)isonicotinaldehyde]"
4,+ (a delta p50% of between 0 and 29),"COc1cc(C=O)c(OCc2cncc(-c3ccn(C)n3)c2)cn1 [Compound 75, 2-methoxy-5-((5-(1-methyl-1H-pyrazol-3-yl)pyridin-3-yl)methoxy)isonicotinaldehyde]"
5,+ (a delta p50% of between 0 and 29),"Cc1ccc(OCc2cccnc2-n2cccn2)c(C=O)n1 [Compound 135, 3-((2-(1H-pyrazol-1-yl)pyridin-3-yl)methoxy)-6-methylpicolinaldehyde]"
6,+ (a delta p50% of between 0 and 29),"COc1cc(C=O)c(OCc2cc(C#N)cn3ccnc23)cn1 [Compound 97, 8-((4-formyl-6-methoxypyridin-3-yloxy)methyl)imidazo[1,2-a]pyridine-6-carbonitrile]"
7,+ (a delta p50% of between 0 and 29),"COc1cc(C(O)OC)c(OCc2cccc3nccn23)cn1 (stereo not shown) [Compound 50, (5-(imidazo[1,2-a]pyridin-5-ylmethoxy)-2-methoxypyridin-4-yl)(methoxy)methanol]"
8,+ (a delta p50% of between 0 and 29),"CNC(=O)c1cccn2cc(COc3cnc(OC)cc3C(O)O)nc12 [Compound 72, 2-((4-(dihydroxymethyl)-6-methoxypyridin-3-yloxy)methyl)-N-methylimidazo[1,2-a]pyridine-8-carboxamide]"
9,+ (a delta p50% of between 0 and 29),"O=Cc1ccncc1OCc1cccn2cncc12 [Compound 7, 3-(imidazo[1,5-a]pyridin-8-ylmethoxy)isonicotinaldehyde]"
10,+ (a delta p50% of between 0 and 29),"Cc1ccc(OCc2cccnc2)c(C=O)n1 [Compound 136, 6-methyl-3-(pyridin-3-ylmethoxy)picolinaldehyde]"
11,+ (a delta p50% of between 0 and 29),"COc1cc(C=O)c(OCc2cn3cccc(-c4ccnn4C)c3n2)cn1 [Compound 61, 2-methoxy-5-((8-(1-methyl-1H-pyrazol-5-yl)imidazo[1,2-a]pyridin-2-yl)methoxy)isonicotinaldehyde]"
12,+ (a delta p50% of between 0 and 29),"Cc1ccc(OCc2ccc3ccccc3n2)c(C=O)n1 [Compound 94, 6-methyl-3-(quinolin-2-ylmethoxy)picolinaldehyde]"
13,+ (a delta p50% of between 0 and 29),"COc1cc(C=O)c(OCc2cccc3[nH]ncc23)cn1 [Compound 87, 5-((1H-indazol-4-yl)methoxy)-2-methoxyisonicotinaldehyde]"
14,+ (a delta p50% of between 0 and 29),"COc1cc(C=O)c(NC(=O)c2cccn3ccnc23)cn1 [Compound 112, N-(4-formyl-6-methoxypyridin-3-yl)imidazo[1,2-a]pyridine-8-carboxamide]"
15,+ (a delta p50% of between 0 and 29),"O=Cc1cccnc1OCc1cccn2ccnc12 [Compound 3, 2-(imidazo[1,2-a]pyridin-8-ylmethoxy)nicotinaldehyde]"
16,+ (a delta p50% of between 0 and 29),"COc1cc(C=O)c(OCc2cccnc2-c2cn[nH]c2)cn1 [Compound 128, 5-((2-(1H-pyrazol-4-yl)pyridin-3-yl)methoxy)-2-methoxyisonicotinaldehyde]"
17,+ (a delta p50% of between 0 and 29),"Cc1ccc(OCc2cccc3[nH]ncc23)c(C=O)n1 [Compound 88, 3-((1H-indazol-4-yl)methoxy)-6-methylpicolinaldehyde]"
18,+ (a delta p50% of between 0 and 29),"COc1cc(C=O)c(OCc2c(-c3cc[nH]n3)ccn3cncc23)cn1 [Compound 123, 5-((7-(1H-pyrazol-3-yl)imidazo[1,5-a]pyridin-8-yl)methoxy)-2-methoxyisonicotinaldehyde]"

row,delta p50%,Compound
1,+ (a delta p50% of between 0 and 29),"COc1cc(C=O)c(OCc2cc(-c3cn[nH]c3)cn3ccnc23)cn1 [Compound 102, 5-((6-(1H-pyrazol-4-yl)imidazo[1,2-a]pyridin-8-yl)methoxy)-2-methoxyisonicotinaldehyde]"
2,+ (a delta p50% of between 0 and 29),"COc1cc(C=O)c(OCc2ccc(C#N)nc2)cn1 [Compound 62, 5-((4-formyl-6-methoxypyridin-3-yloxy)methyl)picolinonitrile]"
3,+ (a delta p50% of between 0 and 29),"COc1ccc(OCc2ccc3cnn(C)c3c2)c(C=O)n1 [Compound 89, 6-methoxy-3-((1-methyl-1H-indazol-6-yl)methoxy)picolinaldehyde]"
4,++ (a delta p50% of between 30 and 50),"Cc1ccc(OCc2cccn3ccnc23)c(C=O)n1 [Compound 49, 3-(imidazo[1,2-a]pyridin-8-ylmethoxy)-6-methylpicolinaldehyde]"
5,+ (a delta p50% of between 0 and 29),"COc1cc(C=O)c(OCc2ccc3c(cnn3C)c2)cn1 [Compound 110, 2-methoxy-5-((1-methyl-1H-indazol-5-yl)methoxy)isonicotinaldehyde]"
6,+ (a delta p50% of between 0 and 29),"Cc1ccc(OCc2cccc3ocnc23)c(C=O)n1 [Compound 99, 3-(benzo[d]oxazol-4-ylmethoxy)-6-methylpicolinaldehyde]"
7,+ (a delta p50% of between 0 and 29),"COc1cc(C=O)c(OCc2ccncc2C)cn1 [Compound 47, 2-methoxy-5-((3-methylpyridin-4-yl)methoxy)isonicotinaldehyde]"
8,+ (a delta p50% of between 0 and 29),"COc1cc(C=O)c(OCc2cccc3cnn(C)c23)cn1 [Compound 90, 2-methoxy-5-((1-methyl-1H-indazol-7-yl)methoxy)isonicotinaldehyde]"
9,+ (a delta p50% of between 0 and 29),"COC(=O)c1cncc(COc2cnc(OC)cc2C=O)c1 [Compound 78, methyl 5-((4-formyl-6-methoxypyridin-3-yloxy)methyl)nicotinate]"
10,+ (a delta p50% of between 0 and 29),"COc1cc(C=O)c(OCc2cc(C(N)=O)cn3ccnc23)cn1 [Compound 100, 8-((4-formyl-6-methoxypyridin-3-yloxy)methyl)imidazo[1,2-a]pyridine-6-carboxamide]"
11,+ (a delta p50% of between 0 and 29),"Cc1ccc(OCc2ccc3ccncc3c2)c(C=O)n1 [Compound 83, 3-(isoquinolin-7-ylmethoxy)-6-methylpicolinaldehyde]"
12,+ (a delta p50% of between 0 and 29),"O=Cc1ccncc1NC(=O)c1cccn2ccnc12 [Compound 51, N-(4-formylpyridin-3-yl)imidazo[1,2-a]pyridine-8-carboxamide]"
13,+ (a delta p50% of between 0 and 29),"COc1cc(C=O)c(OCc2cc(Br)cn3ccnc23)cn1 [Compound 96, 5-((6-bromoimidazo[1,2-a]pyridin-8-yl)methoxy)-2-methoxyisonicotinaldehyde]"
14,+ (a delta p50% of between 0 and 29),"COc1cc(C=O)c(OCc2cncc(-c3nn[nH]n3)c2)cn1 [Compound 124, 5-((5-(2H-tetrazol-5-yl)pyridin-3-yl)methoxy)-2-methoxyisonicotinaldehyde]"
15,+ (a delta p50% of between 0 and 29),"COc1cc(C=O)c(OCc2cnccc2-c2cn[nH]c2)cn1 [Compound 95, 5-((4-(1H-pyrazol-4-yl)pyridin-3-yl)methoxy)-2-methoxyisonicotinaldehyde]"
16,+ (a delta p50% of between 0 and 29),"COc1cc(C=O)c(OCc2ccc(C)nc2)cn1 [Compound 41, 2-methoxy-5-((6-methylpyridin-3-yl)methoxy)isonicotinaldehyde]"
17,+ (a delta p50% of between 0 and 29),"O=Cc1ncccc1OCc1cccn2ccnc12 [Compound 4, 3-(imidazo[1,2-a]pyridin-8-ylmethoxy)picolinaldehyde]"
18,+ (a delta p50% of between 0 and 29),"COc1cc(C=O)c(OCc2ccc3ccncc3c2)cn1 [Compound 82, 5-(isoquinolin-7-ylmethoxy)-2-methoxyisonicotinaldehyde]"

# Same assay, conditions: compound at 100 μM; 25 μM purified HbS, 45 min at 37° C.
row,delta p50%,Compound
1,+ (a delta p50% of between 0 and 29),"COc1cc(C=O)c(OCc2nc3ccccn3c2Br)cn1 [Compound 55, 5-((3-bromoimidazo[1,2-a]pyridin-2-yl)methoxy)-2-methoxyisonicotinaldehyde]"
